Experiment [1] addresses T1, hPK-M2 (Homo sapiens, UniProt P14618). Description: Luminescent pyruvate kinase-luciferase coupled assay (KinaseGlo). As to conditions: for AC50: luminescent pyruvate kinase-luciferase coupled assay (KinaseGlo), tables, read-out: hPK, M2 AC50. Format: biochemical. In a few lines:
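Activation assay with 0.1 mM ADP and 0.5 mM PEP in 50 mM imidazole pH 7.2, 50 mM KCl, 7 mM MgCl2, 0.01% tween 20, 0.05% BSA; 1 h at r.t. ATP produced was read by luciferase luminescence. AC50 values were normalized to DMSO (uninhibited enzyme) and no-enzyme controls.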
In general terms: Kinase-Glo reads ATP consumption through a luciferase reaction.

Experiment [2] addresses T1, hPK-M2. Description: Fluorescent pyruvate kinase-lactate dehydrogenase (LDH) coupled secondary assay. Type of experiment: biochemical. As to conditions: for LDH hPK, M2 Max. Res.: % activation at 57 μM of compound; for AC50: tables, read-out: LDH hPK, M2 AC50. The method, then:
Fluorescent Pyruvate Kinase-Lactate Dehydrogenase Coupled Secondary Assay.
Plates were immediately placed in ViewLux (Perkin Elmer) and NADH fluorescence was determined at 30 second exposure intervals for between 3 and 6 minutes. Data were normalized to the uninhibited and EC100 activation using known activators such as fructose-1,6-bis-phosphate. […] Data was collected on the Perkin Elmer Viewlux.

Setting [3] is: KinaseGlo, % activation at 57 μM of compound.

T1 sequence (P14618 whole entry): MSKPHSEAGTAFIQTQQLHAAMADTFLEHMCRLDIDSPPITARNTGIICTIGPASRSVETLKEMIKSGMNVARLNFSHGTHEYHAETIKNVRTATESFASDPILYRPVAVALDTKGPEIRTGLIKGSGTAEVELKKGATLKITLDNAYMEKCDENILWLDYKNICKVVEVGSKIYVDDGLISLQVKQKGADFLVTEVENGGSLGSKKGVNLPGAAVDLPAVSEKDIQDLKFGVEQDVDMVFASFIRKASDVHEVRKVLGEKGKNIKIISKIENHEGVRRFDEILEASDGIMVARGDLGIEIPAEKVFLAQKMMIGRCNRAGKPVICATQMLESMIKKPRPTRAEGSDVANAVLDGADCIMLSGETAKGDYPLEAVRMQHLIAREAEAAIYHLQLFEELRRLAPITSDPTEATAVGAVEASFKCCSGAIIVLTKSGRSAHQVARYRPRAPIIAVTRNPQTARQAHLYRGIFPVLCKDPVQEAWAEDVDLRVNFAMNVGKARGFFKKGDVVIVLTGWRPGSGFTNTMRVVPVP

For orientation: AC50 means the concentration giving half of the maximal activity seen. `COc1cc(F)c(S(=O)(=O)N2CCN(S(=O)(=O)c3ccco3)CC2)c(F)c1` [Compound 145]: on hPK-M2 [1] (setting [3]), the “hPK, M2 Max. Res.” value is 82.49%. For the same compound, the concentration at half-maximal activity (AC50) on hPK-M2 [1] came out at 183 nM. For the same compound, at hPK-M2 [2], the “LDH hPK, M2 Max. Res.” value amounted to 106.13% and the AC50 came out at 116 nM.

`Cc1ccc(N[S+](=O)([O-])c2ccc3c(c2)CCC(=O)N3)cc1C` [Compound 150]: at hPK-M2 [1] (KinaseGlo, % activation at 57 μM of compound, read-out: hPK, M2 Max. Res.), the activation at 57 µM came to 84%. The AC50 on hPK-M2 [1] was 163 nM. Besides, at hPK-M2 [2], the “LDH hPK, M2 Max. Res.” value came out at 153.98% and the concentration at half-maximal activity (AC50) came to 146 nM.

Take `Nc1ccc(S(=O)(=O)N2CCN(S(=O)(=O)c3ccc4c(c3)OCCO4)CC2)cc1` [Compound 151]: at hPK-M2 [1] (setting [3]), the “hPK, M2 Max. Res.” value was 91.84%. For the same compound, the results for the AC50 on hPK-M2 [1] and at hPK-M2 [2] were 410 nM and 366 nM, respectively. The “LDH hPK, M2 Max. Res.” value at hPK-M2 [2] was determined as 174.46%.

Values taken from patent publication US8937067B2, “Activators of human pyruvate kinase” (The United States of America, as represented by the …, priority 2008, dated 2015).
